What all share (assay): Broth dilution MIC
What all share (format): cell-based
(In general: In broth dilution the organism is exposed to a series of concentrations in liquid medium.)

Test [1] has as its system S. marcescens GC 4077. The settings on record: Serratia marcescens, GC4077; S. marcescens GC 4077; Mueller-Hinton broth, 18 hours at 35° C.; read-out: Antimicrobial Activity (MIC). A digest of the protocol: (§1)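 Broth dilution in Mueller-Hinton medium with 18 h incubation at 35° C.; the minimal concentration that stops growth of each strain is the MIC.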
In test [2] the test system is CNS GC 4538. The settings on record: CNS GC 4538; Mueller-Hinton broth, 18 hours at 35° C.; read-out: Antimicrobial Activity (MIC). A digest of the protocol:
as §1

Test [3] relates to P. aeruginosa GC 4532. The settings on record: Pseudomonas aeruginosa, GC4532; P. aeruginosa GC 4532; Mueller-Hinton broth, 18 hours at 35° C.; read-out: Antimicrobial Activity (MIC). In outline:
as §1

In test [4] the test system is S. aureus GC 2216. The settings on record: Staphylococcus aureus, GC2216; S. aureus GC 2216; Mueller-Hinton broth, 18 hours at 35° C.; read-out: Antimicrobial Activity (MIC). A digest of the protocol: as §1
Test [5] concerns S. aureus GC 1131. The settings on record: Staphylococcus aureus, GC1131; S. aureus GC 1131; Mueller-Hinton broth, 18 hours at 35° C.; read-out: Antimicrobial Activity (MIC). A digest of the protocol: as §1
The subject of test [6] is E. faecalis GC 4555. The note with it: Enterococcus faecalis, GC4555; E. faecalis GC 4555; Mueller-Hinton broth, 18 hours at 35° C.; read-out: Antimicrobial Activity (MIC). A digest of the protocol:
as §1

Test [7] concerns P. aeruginosa GC 2214. The settings on record: Pseudomonas aeruginosa, GC2214; P. aeruginosa GC 2214; Mueller-Hinton broth, 18 hours at 35° C.; read-out: Antimicrobial Activity (MIC). In outline: as §1
In test [8] the test system is CNS GC 4547. The note with it: CNS GC 4547; Mueller-Hinton broth, 18 hours at 35° C.; read-out: Antimicrobial Activity (MIC). A digest of the protocol: as §1
Test [9] deals with M. morganii GC 4531. The note with it: Morganella morganii, GC4531; M. morganii GC 4531; Mueller-Hinton broth, 18 hours at 35° C.; read-out: Antimicrobial Activity (MIC). A digest of the protocol: as §1
Test [10] concerns K. pneumoniae GC 4534. The settings on record: Klebsiella pneumoniae, GC4534; K. pneumoniae GC 4534; Mueller-Hinton broth, 18 hours at 35° C.; read-out: Antimicrobial Activity (MIC). A digest of the protocol:
as §1

Test [11] has as its system E. coli GC 3226. The note with it: Escherichia coli, GC3226; E. coli GC 3226; Mueller-Hinton broth, 18 hours at 35° C.; read-out: Antimicrobial Activity (MIC). A digest of the protocol:
as §1

The subject of test [12] is E. faecalis GC 2242. The note with it: Enterococcus faecalis, GC2242; E. faecalis GC 2242; Mueller-Hinton broth, 18 hours at 35° C.; read-out: Antimicrobial Activity (MIC). A digest of the protocol: as §1
Test [13] concerns S. aureus GC 4536. The note with it: Staphylococcus aureus, GC4536; S. aureus GC 4536; Mueller-Hinton broth, 18 hours at 35° C.; read-out: Antimicrobial Activity (MIC). A digest of the protocol: as §1
For test [14], the system named is E. coli GC 4559. The note with it: Escherichia coli, GC4559; E. coli GC 4559; Mueller-Hinton broth, 18 hours at 35° C.; read-out: Antimicrobial Activity (MIC). A digest of the protocol: as §1
Test [15] has as its system P. rettgeri GC 4530. The settings on record: Providencia rettgeri, GC4530; P. rettgeri GC 4530; Mueller-Hinton broth, 18 hours at 35° C.; read-out: Antimicrobial Activity (MIC). A digest of the protocol:
as §1

Test [16] deals with CNS GC 4537. The settings on record: CNS GC 4537; Mueller-Hinton broth, 18 hours at 35° C.; read-out: Antimicrobial Activity (MIC). In outline: as §1
The subject of test [17] is E. coli GC 2203. The note with it: Escherichia coli, GC2203; E. coli GC 2203; Mueller-Hinton broth, 18 hours at 35° C.; read-out: Antimicrobial Activity (MIC). A digest of the protocol: as §1
Test [18] has as its system E. cloacae GC 3783. The settings on record: Enterobacter cloacae, GC3783; E. cloacae GC 3783; Mueller-Hinton broth, 18 hours at 35° C.; read-out: Antimicrobial Activity (MIC). In outline:
as §1

Test [19] concerns E. faecalis GC 842. The settings on record: Enterococcus faecalis, GC842; E. faecalis GC 842; Mueller-Hinton broth, 18 hours at 35° C.; read-out: Antimicrobial Activity (MIC). A digest of the protocol: as §1
The subject of test [20] is E. coli GC 4560. The note with it: Escherichia coli, GC4560, 18 h, read-out: Antimicrobial Activity (MIC). In outline:
as §1

In brackets after ≈: the same amount, converted by molar mass.

Results on 4 molecules are retold here after patent US6727232B2, “Nucleoside peptide antibiotics of AA-896” (Wyeth Holdings Corporation, priority 2001, dated 2004).

Consider `CCCCCCCCCCCCCCCCNC(=O)NC[C@H]1OC(O[C@H](C(NCCCNC(=O)C(NC(=O)C(NC(=O)NC(C(=O)O)C(C)C)C2CCNC(=N)N2)C(O)C(C)C)C(=O)O)[C@H]2O[C@@H](n3ccc(=O)[nH]c3=O)[C@H](O)[C@@H]2O)[C@H](OC)[C@H]1O` (stereo partly drawn) [Example 16, 16-((R)-{(2S,3S,4R,5R)-5-[2,4-Dioxo-3,4-dihydro-1 (2H)-pyrimidinyl]-3,4-dihydroxytetrahydro-2-furanyl}{[(3R,4S,5R)-5-({[(hexadecylamino)carbonyl]amino}methyl)-4-hydroxy-3-methoxytetrahydro-2-furanyl]oxy}methyl)-9-(1-hydroxy-2-methylpropyl)-6-(2-iminohexahydro-4-pyrimidinyl)-2-isopropyl-4,7,10-trioxo-3,5,8,11,15-pentaazaheptadecane-1,17-dioic Acid], for which the minimum inhibitory concentration (MIC) in [1], in [2], in test [3], in test [4], in test [5] and in test [6] was > 32 µg/mL each time. In addition, the MIC in test [7], in [8], in test [9], in test [10], in test [11] and in [12] was > 32 µg/mL in each case. Moreover, the MIC in test [13], in [14], in test [15], in [16], in test [17] and in [18] was > 32 µg/mL each time. Moreover, the MIC in [19] and in test [20] was > 32 µg/mL throughout.
Consider `CCCCCCN1C(=O)C([C@@H](OC2O[C@H](CN)[C@H](O)[C@H]2OC)[C@H]2O[C@@H](n3ccc(=O)[nH]c3=O)[C@H](O)[C@@H]2O)N(CCCNC(=O)C(NC(=O)C(NC(=O)NC(C(=O)O)C(C)C)C2CCNC(=N)N2)C(O)C(C)C)C1=O` (stereo partly drawn) [Example 3, 14-[5-((R)-{[(3R,4S,5R)-5-(Aminomethyl)-4-hydroxy-3-methoxytetrahydro-2-furanyl]oxy}{(2S,3S,4R,5R)-5-[2,4-dioxo-3,4-dihydro-1 (2H)-pyrimidinyl]-3,4-dihydroxytetrahydro-2-furanyl}methyl)-3-hexyl-2,4-dioxo-1-imidazolidinyl]-9-(1-hydroxy-2-methylpropyl)-6-(2-iminohexahydro-4-pyrimidinyl)-2-isopropyl-4,7,10-trioxo-3,5,8,11-tetraazatetradecan-1-oic acid], for which the minimum inhibitory concentration (MIC) in test [1], in test [2], in [3], in [4], in test [5] and in [6] was > 32 µg/mL in each case. The MIC in test [7], in test [8], in test [9], in test [10], in test [11] and in test [12] was > 32 µg/mL in each case. Further, the MIC in [13], in test [14], in test [15], in test [16], in test [17] and in test [18] was > 32 µg/mL in each case. Moreover, the minimum inhibitory concentration (MIC) (in general, the smallest concentration in the dilution series that meets the test's criterion for growth inhibition) in [19] is > 32 µg/mL; in [20], 32 µg/mL (≈ 30.3 µM).
As for `CO[C@H]1C(O[C@H](C(NCCCNC(=O)C(NC(=O)C(NC(=O)NC(C(=O)O)C(C)C)C2CCNC(=N)N2)C(O)C(C)C)C(=O)O)[C@H]2O[C@@H](n3ccc(=O)[nH]c3=O)[C@H](O)[C@@H]2O)O[C@H](CNCc2ccccc2)[C@@H]1O` (stereo partly drawn) [Example 20A, 16-((R)-({(3R,4S,5R)-5-[(Benzylamino)methyl]-4-hydroxy-3-methoxytetrahydro-2-furanyl}oxy){(2S,3S,4R,5R)-5-[2,4-dioxo-3,4-dihydro-1 (2H)-pyrimidinyl]-3,4-dihydroxytetrahydro-2-furanyl}methyl)-9-(1-hydroxy-2-methylpropyl)-6-(2-iminohexahydro-4-pyrimidinyl)-2-isopropyl-4,7,10-trioxo-3,5,8,11,15-pentaazaheptadecane-1,17-dioic acid], the minimal inhibitory concentration (MIC) in test [1], in [2], in test [3], in test [4], in test [5] and in test [6] was > 32 µg/mL each time. Besides, the minimal inhibitory concentration (MIC) in [7], in test [8], in [9], in test [10], in [11] and in test [12] was > 32 µg/mL in each case. Further, the MIC in [13], in test [14], in test [15], in [16], in [17] and in test [18] was > 32 µg/mL in each case. The minimum inhibitory concentration (MIC) in [19] and in [20] was > 32 µg/mL in each case.
Regarding `CO[C@H]1C(O[C@H](C(C(=O)O)N(CCCNC(=O)C(NC(=O)C(NC(=O)NC(C(=O)O)C(C)C)C2CCNC(=N)N2)C(O)C(C)C)Cc2ccccc2)[C@H]2O[C@@H](n3ccc(=O)[nH]c3=O)[C@H](O)[C@@H]2O)O[C@H](CN)[C@@H]1O` (stereo partly drawn) [Example 6, 16-((R)-{[(3R,4S,5R)-5-(Aminomethyl)-4-hydroxy-3-methoxytetrahydro-2-furanyl]oxy}{(2S,3S,4R,5R)-5-[2,4-dioxo-3,4-dihydro-1 (2H)-pyrimidinyl]-3,4-dihydroxytetrahydro-2-furanyl}methyl)-15-benzyl-9-(1-hydroxy-2-methylpropyl)-6-(2-iminohexahydro-4-pyrimidinyl)-2-isopropyl-4,7,10-trioxo-3,5,8,11,15-pentaazaheptadecane-1,17-dioic Acid], the minimum inhibitory concentration (MIC) in test [1], in test [2], in [3], in test [4], in test [5] and in [6] was > 32 µg/mL each time. In addition, the minimum inhibitory concentration (MIC) in [7], in test [8], in [9], in test [10], in test [11] and in [12] was > 32 µg/mL throughout. For the same molecule, the minimum inhibitory concentration (MIC) in [13], in test [14], in test [15], in test [16], in [17] and in test [18] was > 32 µg/mL throughout. The MIC in [19] is > 32 µg/mL; in test [20] it was 2 µg/mL (≈ 1.93 µM).
